Experimental data: patent US20140330152A1, “PROVIDING EVIDENCE WHETHER AN INT[…] IS CORRECTLY POSITIONED” (priority 2011, published 2014)

O=C([O-])O.[Na+] [bicarbonate (as NaHCO3), sodium bicarbonate]
amount of exhaled carbon dioxide on extravascular administration (administered extravascularly): does not substantially increase
clearance: amount of exhaled carbon dioxide returns to normal after administration is stopped (after intravenous administration is stopped): within the third exhalation
